A short description of data set [1]: Stability in rat serum assessed as parent compound remaining measured after 30 mins by LC-MS analysis. Type of data set: ADME, cell-free. The settings on record: read-out: Stability.
Data set [2] can be described thus: Metabolic stability in rat liver microsomes assessed as parent compound remaining measured after 30 mins in presence of NADPH by LC-MS/MS analysis. Format: ADME, Microsome. The settings on record: read-out: Stability.

The text below walks through data of ChEMBL document CHEMBL6074638, “Stability studies of β-Amino- and β-Hydroxy difluoromethyl ketones in rat serum and rat liver microsomes” (Bioorg Med Chem Lett, 2024).

Each structure is given as a SMILES string. A value given as a limit tells only on which side of the number the result lay.

For `CC(=O)c1ccc(C(O)C(F)(F)C(=O)C23CC4CC(CC(C4)C2)C3)cc1` (configuration not stated), the remaining at 0.5 h came to 73% in data set [1] and 70.5% in data set [2]. Take `COc1ccc(C(O)C(F)(F)C(=O)c2ccc3ccccc3c2)cc1` (configuration not stated): the values for the remaining at 0.5 h in data set [1] and in data set [2] were 88.5% and less than 1%, respectively. With `O=C(c1ccc(Cl)cc1)C(F)(F)C(NCc1ccccc1)c1ccccc1` (configuration not stated), the remaining at 0.5 h in data set [1] is 87%; in data set [2], 2%. As for `CC(C)(C)OC(=O)NC(c1ccccc1)C(F)(F)C(=O)c1ccc2ccccc2c1` (configuration not stated), the remaining at 0.5 h in data set [1] turned out to be 71.5%; in data set [2] it was 4%. On the same counts, the results for `CC(C)(C)OC(=O)NC(c1ccccc1)C(F)(F)C(=O)c1ccc2c(c1)OCO2` (configuration not stated) are 100% and 2.5%.

Consider `O=C(c1ccc2ccccc2c1)C(F)(F)C(NCc1ccccc1)c1ccccc1` (configuration not stated), for which the remaining at 0.5 h is 85% in data set [1] and 3.5% in data set [2]. For the molecule `O=C(C12CC3CC(CC(C3)C1)C2)C(F)(F)C(O)c1ccc(Cl)cc1` (configuration not stated), the remaining at 0.5 h in data set [1] was 48.5%; in data set [2] it was less than 1%. `C/C=C/C=C/C(NCc1ccccc1)C(F)(F)C(=O)c1ccc2ccccc2c1` (configuration not stated): the remaining at 0.5 h in data set [1] stood at 100%; in data set [2], 2%. With `CC(C)(C)OC(=O)NC(c1cccc(Br)c1)C(F)(F)C(=O)c1ccc(Cl)cc1` (configuration not stated), the values for the remaining at 0.5 h in data set [1] and in data set [2] were 100% and less than 1%, respectively. In the case of `CC(C)(C)OC(=O)NC(c1ccc(Cl)cc1)C(F)(F)C(=O)c1ccc(Cl)cc1` (configuration not stated), the figures for the remaining at 0.5 h in data set [1] and in data set [2] were 83% and 3%, respectively. Regarding `O=C(c1cccc(SCc2ccccc2)c1)C(F)(F)C(NCc1ccccc1)c1ccccc1` (configuration not stated), the remaining at 0.5 h in data set [1] was found to be 97%; in data set [2], 12.5%. Turning to `O=C(c1ccc2ccccc2c1)C(F)(F)C(O)c1cccc(F)c1` (configuration not stated), the results for the remaining at 0.5 h in data set [1] and in data set [2] were 82% and less than 1%, respectively. On to `CC(C)(C)OC(=O)NC(c1cccc(F)c1)C(F)(F)C(=O)c1ccc(Cl)cc1` (configuration not stated), for which the remaining at 0.5 h in data set [2] is less than 1%. As for `CCC/C=C/C(O)C(F)(F)C(=O)C12CC3CC(CC(C3)C1)C2` (configuration not stated), the remaining at 0.5 h in data set [1] is less than 1%; in data set [2], 63%.

For `O=C(c1ccc2ccccc2c1)C(F)(F)CO`, the remaining at 0.5 h in data set [1] came out at 100%; in data set [2], 41.5%. For the molecule `COc1ccc(C(Nc2ccc(F)cc2)C(F)(F)C(=O)c2ccc3ccccc3c2)cc1` (configuration not stated), the remaining at 0.5 h in data set [1] amounted to 76%; in data set [2], 2%.

Take `O=C(c1ccc2c(c1)OCO2)C(F)(F)C(O)c1ccccc1` (configuration not stated): the results for the remaining at 0.5 h in data set [1] and in data set [2] were 83.5% and 53%, respectively. As to `O=C(c1ccc2ccccc2c1)C(F)(F)C(O)/C=C/c1ccccc1` (configuration not stated), the remaining at 0.5 h stood at 90.5% in data set [1] and 75.5% in data set [2]. Take `O=C(c1ccc2ccccc2c1)C(F)(F)C(Nc1ccccc1)c1ccccc1` (configuration not stated): the remaining at 0.5 h came to 85% in data set [1] and 1% in data set [2].

For `CC(C)(C)NC(c1ccccc1)C(F)(F)C(=O)c1ccc2ccccc2c1` (configuration not stated), the results for the remaining at 0.5 h in data set [1] and in data set [2] were 98% and less than 1%, respectively. With `COc1ccc(NC(c2ccc(OC)cc2)C(F)(F)C(=O)c2ccc3ccccc3c2)cc1` (configuration not stated), the remaining at 0.5 h came out at 100% in data set [1] and 7.5% in data set [2]. On to `O=C(c1ccc2ccccc2c1)C(F)(F)C(O)c1ccc(F)cc1` (configuration not stated), for which the remaining at 0.5 h is 96.5% in data set [1] and less than 1% in data set [2].

In the case of `O=C(c1ccc(Cl)cc1)C(F)(F)C(O)c1ccccc1` (configuration not stated), the remaining at 0.5 h in data set [1] is 97%; in data set [2], 98.5%. As to `COc1ccc(C(NC(=O)OC(C)(C)C)C(F)(F)C(=O)c2ccc3ccccc3c2)cc1` (configuration not stated), the remaining at 0.5 h turned out to be 61% in data set [1] and 10% in data set [2].

Consider `COc1ccc(C(O)C(F)(F)C(=O)C23CC4CC(CC(C4)C2)C3)cc1` (configuration not stated), for which the remaining at 0.5 h in data set [1] stood at 66.5%; in data set [2], 85.5%. `O=C(c1ccc2c(c1)OCO2)C(F)(F)C(O)c1ccc(Cl)cc1` (configuration not stated): the results for the remaining at 0.5 h in data set [1] and in data set [2] were 85% and 11.5%, respectively. Take `CC(=O)c1ccc(C(O)C(F)(F)C(=O)c2ccc3ccccc3c2)cc1` (configuration not stated): the values for the remaining at 0.5 h in data set [1] and in data set [2] were 86.5% and less than 1%, respectively. On to `CC(C)(C)OC(=O)NC(c1ccc(Cl)cc1)C(F)(F)C(=O)c1ccc2ccccc2c1` (configuration not stated), for which the remaining at 0.5 h is less than 1% in data set [1] and 7.5% in data set [2].

Consider `CC(C)(C)OC(=O)NC(c1ccc(F)cc1)C(F)(F)C(=O)c1ccc(Cl)cc1` (configuration not stated), for which the values for the remaining at 0.5 h in data set [1] and in data set [2] were 80.5% and less than 1%, respectively. As to `COc1ccc(C(Nc2ccccc2)C(F)(F)C(=O)c2ccc3ccccc3c2)cc1` (configuration not stated), the figures for the remaining at 0.5 h in data set [1] and in data set [2] were 100% and less than 1%, respectively. For the molecule `CC(C)(C)OC(=O)NC(c1ccc(F)cc1)C(F)(F)C(=O)c1ccc2ccccc2c1` (configuration not stated), the remaining at 0.5 h in data set [1] is 100%; in data set [2], less than 1%. For `CC(C)(C)OC(=O)NC(c1ccc(Cl)cc1)C(F)(F)C(=O)c1ccc2c(c1)OCO2` (configuration not stated) the same measures were 89% and 83%.

`CC(C)(C)OC(=O)NC(c1cccc(Br)c1)C(F)(F)C(=O)c1ccc2ccccc2c1` (configuration not stated): the results for the remaining at 0.5 h in data set [1] and in data set [2] were 35.5% and 55%, respectively. On to `Cc1ccc(NC(c2ccc(F)cc2)C(F)(F)C(=O)c2ccc3ccccc3c2)cc1C` (configuration not stated), for which the remaining at 0.5 h in data set [1] stood at 74%; in data set [2], 2%. Turning to `COc1cc2c(cc1OC)C(C(F)(F)C(=O)c1ccc(C(F)(F)F)cc1)NCC2` (configuration not stated), the remaining at 0.5 h in data set [1] was 97.5%; in data set [2], 7.5%. On to `O=C(C12CC3CC(CC(C3)C1)C2)C(F)(F)C(NCc1ccccc1)c1ccccc1` (configuration not stated), for which the remaining at 0.5 h in data set [1] is 100%; in data set [2], less than 1%. `CC(C)(C)OC(=O)NC(c1ccccc1)C(F)(F)C(=O)c1ccc(Cl)cc1` (configuration not stated): the remaining at 0.5 h in data set [1] is 99%; in data set [2] it was less than 1%. With `CC(C)(C)OC(=O)NC(c1ccc(C(F)(F)F)cc1)C(F)(F)C(=O)c1ccc2ccccc2c1` (configuration not stated), the remaining at 0.5 h in data set [1] amounted to 48.5%; in data set [2], 27%.

As for `CC(C)(C)OC(=O)NC(c1cccc(F)c1)C(F)(F)C(=O)c1ccc2ccccc2c1` (configuration not stated), the values for the remaining at 0.5 h in data set [1] and in data set [2] were 98% and 5%, respectively.
